# Test results published in US20230086703A1, “N-(4-(5-chloropyridin-3-yl)phenyl)-2-(2-(cyclopropanesulfonamido)pyrimidin-4-yl) butanamide derivatives and related compounds as human CTPS1 inhibitors for the treatment of proliferative diseases” (Step Pharma S.A.S., priority 2019, published 2023).
# Target: T1, human CTPS1 (Homo sapiens, UniProt P17812)
# T1 construct: FLAG (with GG linker); His8 (with GG linker); purchased Proteros biostructures GmbH
# T1 sequence (P17812 1-591): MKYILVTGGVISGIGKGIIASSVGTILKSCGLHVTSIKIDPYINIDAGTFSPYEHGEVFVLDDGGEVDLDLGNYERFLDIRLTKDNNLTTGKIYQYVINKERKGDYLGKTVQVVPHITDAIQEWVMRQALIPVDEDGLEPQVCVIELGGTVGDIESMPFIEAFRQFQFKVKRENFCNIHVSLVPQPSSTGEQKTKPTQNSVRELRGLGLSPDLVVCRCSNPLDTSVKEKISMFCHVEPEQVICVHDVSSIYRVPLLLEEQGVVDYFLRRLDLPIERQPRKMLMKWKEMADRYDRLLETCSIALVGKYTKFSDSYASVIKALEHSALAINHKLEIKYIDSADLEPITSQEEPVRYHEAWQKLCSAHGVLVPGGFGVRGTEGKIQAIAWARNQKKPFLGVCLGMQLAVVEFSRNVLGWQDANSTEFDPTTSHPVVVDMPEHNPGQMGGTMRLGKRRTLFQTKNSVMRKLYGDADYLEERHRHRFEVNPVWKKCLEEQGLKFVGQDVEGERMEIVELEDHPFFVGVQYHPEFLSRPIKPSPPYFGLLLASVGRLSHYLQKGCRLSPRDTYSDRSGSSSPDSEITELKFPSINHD
# Assay: RapidFire/MS-based enzyme selectivity assay (human CTPS1 versus CTPS2), CTPS1 isoform
# Assay type: biochemical
# Conditions: RapidFire/MS IC50 values of CTPS1 and CTPS2; Table 15
# Experimental: Human CTPS1 Versus CTPS2 Selectivity Assessment by RapidFire/MS Analysis.
# The enzyme inhibitory activities against each target isoform of interest may be determined for the compounds of the invention using an optimised RapidFire high-throughput mass spectrometry (RF/MS) assay format. RF/MS assays for both human CTPS1 and CTPS2 may be performed in assay buffer consisting of 50 mM HEPES (Merck), 20 mM MgCl2, 5 mM KCl, 1 mM DTT, 0.01% Tween-20, pH to 8.0 accordingly. Human full-length active C-terminal FLAG-His-tag CTPS1 (UniProtKB—P17812, CTPS1[1-591]-[…] (CTPS1[1-591]-SEQ ID NO: 1)) may be obtained from Proteros biostructures GmbH. Human full length active C-terminal FLAG-His-Avi tagged CTPS2 (UniProtKB—Q9NRF8, CTPS2 [1-586]-[…] (CTPS2 [1-586]—SEQ ID NO: 2)) may be obtained from Harker Bio.
# Human CTPS (1 or 2) protein may be prepared in 1× assay buffer to the final working protein concentration required for the reaction. A 2 uL volume per well of 2×CTPS (1 or 2) protein may be mixed with 40 nL of compound using acoustic (ECHO) delivery and incubated for 10 minutes at 25° C. Each isoform enzymatic reaction may be subsequently initiated by addition of 2 uL per well of a 2× substrate mix in assay buffer. For hCTPS1: ATP (0.3 mM), UTP (0.2 mM), GTP (0.07 mM) and L-glutamine (0.1 mM). For hCTPS2: ATP (0.1 mM), UTP (0.04 mM), GTP (0.03 mM) and L-glutamine (0.1 mM). Each mixture may be incubated for an appropriate amount of time per isoform within the determined linear phase of the reaction at 25° C. A 80 uL volume of stop solution (1% formic acid with 0.5 uM ^13C9-^15N3-CTP in H2O) may be added and the plate immediately heat-sealed and centrifuged for 10 minutes at 4,000 rpm. Following centrifugation, plates may be loaded onto the Agilent RapidFire microfluidic solid phase extraction system coupled to an API4000 triple quadrupole mass spectrometer (RF/MS) for analysis.
# In all cases, the enzyme converts UTP to CTP. Highly specific and sensitive multiple reaction monitoring (MRM) MS methods may be optimised for the detection of the enzymatic reaction product, CTP, and the stable isotope labelled product standard ^13C9-^15N3-CTP. Readout for data analysis may be calculated as the ratio between the peak area of the product CTP and the internal standard ^13C9-^15N3-CTP. For data reporting, the following equation may be used:
# (R=ratio/readout, P=product signal area, IS=internal standard signal area)
# For each screening plate, the means of the negative (DMSO) and positive control values were used for the calculation of the respective assay window (S/B) and Z′ values. The median of the respective control values was used for calculation of percent inhibition according to the following equation:
# (I=Inhibition, Rneq=median of negative control readout values, Rpos=median of positive control readout values, Rsample=sample readout value)
# Percentage inhibition was then plotted against compound concentration, and the 50% inhibitory concentration (IC50) was determined from the resultant concentration-response curve.
# Fold selectivity between CTPS1 and CTPS2 was subsequently calculated according to the following equation: […]
row,Compound,Selectivity (fold selectivity between CTPS1 and CTPS2)
1,"CCOc1cncc(-c2ccc(NC(=O)C(F)(CC)c3cncc(NS(=O)(=O)C4CC4)n3)nc2)n1 (single isomer, unassigned) [P206, 2-(6-(2-cyclopropanesulfonamido)pyrazin-2-yl)-N-(5-(6-ethoxypyrazin-2-yl)pyridin-2-yl)-2-fluorobutanamide]",+++ (>60 fold (+++))
2,"CCC(C(=O)Nc1ccc(-c2cncc(C(F)(F)F)n2)cc1)c1ccnc(NS(=O)(=O)C2CC2)n1 (stereo not drawn) [P103, 2-(2-(cyclopropanesulfonamido)pyrimidin-4-yl)-N-(4-(6-(trifluoromethyl)pyrazin-2-yl)phenyl)butanamide]",+ (2-30 fold (+))
3,"CCOc1cncc(-c2ccc(NC(=O)C(CC)c3cncc(NS(=O)(=O)C4CC4)n3)cc2)n1 (stereo not drawn) [P202, 2-(6-(cyclopropanesulfonamido)pyrazin-2-yl)-N-(4-(6-ethoxypyrazin-2-yl)phenyl)butanamide]",+++ (>60 fold (+++))
4,"CCOc1cncc(-c2ccc(NC(=O)C(C)(C)c3nc(NS(=O)(=O)C4CC4)ncc3C)cc2)n1 [P70, 2-(2-(cyclopropanesulfonamido)-5-methylpyrimidin-4-yl)-N-(4-(6-ethoxypyrazin-2-yl)phenyl)-2-methylpropanamide]",+ (2-30 fold (+))
5,"CCC(C(=O)Nc1ccc(-c2cncc(OC(C)C)n2)cn1)c1ccnc(NS(=O)(=O)C2CC2)n1 (stereo not drawn) [P89, 2-(2-(cyclopropanesulfonamido)pyrimidin-4-yl)-N-(5-(6-isopropoxypyrazin-2-yl)pyridin-2-yl)butanamide]",+++ (>60 fold (+++))
6,"CCOc1cncc(-c2ccc(NC(=O)C(C)(C)c3nc(NS(=O)(=O)C4CC4)ncc3F)cc2)n1 [P68, 2-(2-(cyclopropanesulfonamido)-5-fluropyrimidin-4-yl)-N-(4-(9-ethoxypyrazin-2-yl)phenyl)-2-methylpropanamide]",++ (>30-60 fold (++))
7,"CCOc1cncc(-c2ccc(NC(=O)C(C)(OC)c3cncc(NS(=O)(=O)C4CC4)n3)nc2)n1 (single isomer, unassigned) [P205b, 2-(6-(cyclopropanesulfonamido)pyrazin-2-yl)-N-(5-(6-ethoxypyrazin-2-yl)pyridin-2-yl)-2-methoxypropanamide]",++ (>30-60 fold (++))
8,"CCC(C(=O)Nc1ccc(-c2cncc(OC)n2)cn1)c1ccnc(NS(=O)(=O)C2CC2)n1 (stereo not drawn) [P159, 2-(2-(cyclopropanesulfonamido)pyrimidin-4-yl)-N-(5-(6-methoxypyrazin-2-yl)pyridin-2-yl)butanamide]",+++ (>60 fold (+++))

# Same assay, conditions: RapidFire/MS IC50 values of CTPS1 and CTPS2; Table 17
row,Compound,Selectivity (fold selectivity between CTPS1 and CTPS2)
1,"CCOc1cncc(-c2ccc(NC(=O)C3(c4ccnc(NS(=O)(=O)C5CC5)n4)CCC(N(C)C)CC3)nc2)n1 (single isomer, unassigned) [P229, 1-(2-(cyclopropanesulfonamido)pyrimidin-4-yl)-4-(dimethylamino)-N-(5-(6-ethoxypyrazin-2-yl)pyridin-2-yl)cyclohexane-1-carboxamide]",+++ (>60 fold (+++))
2,CCOc1cncc(-c2ccc(NC(=O)C3(c4ccnc(NS(=O)(=O)C5CC5)n4)CCN(S(C)(=O)=O)CC3)nc2)n1 [P251],+++ (>60 fold (+++))

# Same assay, conditions: Table 16, human CTPS1 over human CTPS2, RapidFire/MS IC50 values
row,Compound,Selectivity (fold selectivity between CTPS1 and CTPS2)
1,"Cc1cc(-c2cncc(C(F)(F)F)n2)ccc1C(=O)NC(C)(C)c1csc(NS(=O)(=O)C2CC2)n1 [R45, N-(2-(2-(cyclopropanesulfonamido)thiazol-4-yl)propan-2-yl)-2-methyl-4-(6-(trifluoromethyl)pyrazin-2-yl)benzamide]",++ (>30-60 fold (++))
2,"CCOc1cncc(-c2ccc(C(=O)NC3(c4csc(NS(=O)(=O)C5CC5)n4)CC3)c(F)c2)n1 [R82, N-(1-(2-(cyclopropanesulfon-amido)thiazol-4-yl)cyclo-propyl)-4-(6-ethoxypyrazin-2-yl)-2-fluorobenzamide]",+++ (>60 fold (+++))
3,"COc1cc(-c2cncc(C(F)(F)F)n2)ccc1C(=O)NC(C)(C)c1csc(NS(=O)(=O)C2CC2)n1 [R48, N-(2-(2-(cyclopropanesulfonamido)thiazol-4-yl)propan-2-yl)-2-methoxy-4-(6-(trifluoromethyl)pyrazin-2-yl)benzamide]",++ (>30-60 fold (++))
4,"CCC(NC(=O)c1ccc(-c2cncc(F)c2)cc1)c1csc(NS(=O)(=O)C2CC2)n1 (single isomer, unassigned) [R68, N-(1-(2-(cyclopropanesulfon-amido)thiazol-4-yl)propyl)-4-(5-fluoropyridin-3-yl)benzamide]",++ (>30-60 fold (++))
5,"COCCC(NC(=O)c1ccc(-c2cncc(OC(C)C)n2)cc1F)c1csc(NS(=O)(=O)C2CC2)n1 (stereo not drawn) [R89, N-(1-(2-(cyclopropanesulfon-amido)thiazol-4-yl)-3-methoxypropyl)-2-fluoro-4-(6-isopropoxypyrazin-2-yl)benzamide]",+++ (>60 fold (+++))
6,"CCOc1cncc(-c2ccc(C(=O)NCc3csc(NS(=O)(=O)C4CC4)n3)c(F)c2)n1 [R11, N-((2-(cyclopropanesulfon-amido)thiazol-4-yl)methyl)-4-(6-ethoxypyrazin-2-yl)-2-fluorobenzamide]",++ (>30-60 fold (++))
7,CCOc1cncc(-c2ccc(C(=O)NC(C)(C)c3nc(NS(=O)(=O)C4CC4)sc3Cl)nc2)n1 [R73],+ (2-30 fold (+))
8,"CC(C)(NC(=O)c1ccc(-c2cncc(Cl)n2)cn1)c1csc(NS(=O)(=O)C2CC2)n1 [R25, 5-(6-chloropyrazin-2-yl)-N-(2-(2-(cyclopropanesulfonamido)thiazol-4-yl)propan-2-yl)picolinamide]",++ (>30-60 fold (++))
9,"CC(C)(NC(=O)c1ccc(-c2cncc(Cl)n2)cc1)c1csc(NS(=O)(=O)C2CC2)n1 [R52, 4-(6-chloropyrazin-2-yl)-N-(2-(2-(cyclopropanesulfon-amido)thiazol-4-yl)propan-2-yl)benzamide]",+++ (>60 fold (+++))
10,"CCC(NC(=O)c1ccc(-c2cncc(OC(C)C)n2)cc1F)c1csc(NS(=O)(=O)C2CC2)n1 (racemic) [R64, N-(1-(2-(cyclopropanesulfonamido)thiazol-4-yl)propyl)-2-fluoro-4-(6-isopropoxypyrazin-2-yl)benzamide]",++ (>30-60 fold (++))
11,"CCOc1cncc(-c2ccc(C(=O)NC(CCOC)c3csc(NS(=O)(=O)C4CC4)n3)c(F)c2)n1 (stereo not drawn) [R88, N-(1-(2-(cyclopropanesulfon-amido)thiazol-4-yl)-3-methoxypropyl)-4-(6-ethoxypyrazin-2-yl)-2-fluorobenzamide]",+++ (>60 fold (+++))
